Results on 49 molecules are retold here after US10906899B2, “Bicyclic fused pyrazole derivatives for the treatment of RSV” (GEORGIA STATE UNIVERSITY RESEARCH FOUNDATION, INC., priority 2016, dated 2021).

pEC50: −log10 of the molar value.

One assay concerns RSV. Briefly: Dose-response counterscreen: luciferase reporter virus infection of BEAS-2B cells (EC50). It counts as cell-based, respiratory syncytial virus (RSV). As to conditions: human respiratory syncytial virus, A series compounds, anti-RSV potency, read-out: Potency Range (EC50 values).
The pEC50 is −log10 of the EC50, conventionally taken in molar units. On to `COc1cc(C2CC(=O)Nc3c2cnn3-c2ccccn2)ccc1OC1CCCC1` (stereo not shown) [AVG-180], for which the pEC50 is 4.70 to 5.00. As for `COc1ccc(-c2cc(=O)[nH]c3c2cnn3-c2ccccc2)cc1OC1CCCC1` [AVG-067, 4-(3-(cyclopentyloxy)-4-methoxyphenyl)-1-phenyl-1H-pyrazolo[3,4-b]pyridine-6(7H)-one], the pEC50 was less than 4.70. As for `COc1cc(C2CC(=O)Nc3[nH]ncc32)ccc1OC1CCCC1` (stereo not shown) [AVG-179], the negative-log EC50 (pEC50) was less than 4.70. `COc1ccc(C2CC(=O)Nc3c2cnn3-c2ccccc2)cc1OC1CCCC1` (stereo not shown) [AVG-065, 4-(3-(cyclopentyloxy)-4-methoxyphenyl)-1-phenyl-4,5-dihydro-1H-pyrazolo[3,4-b] pyridin-6(7H)-one]: the pEC50 is 4.70 to 5.00. On the same count and under the same terms, next, `COc1ccc(Cn2ncc3c2NC(=O)CC3c2ccc(OC3CCCC3)c(OC)c2)c(OC)c1` (stereo not shown) [AVG-181]: 5.00 to 6.00.

The same assay, now with this note: human respiratory syncytial virus, B series compounds, read-out: Potency Range (EC50 values).
As to `Cc1c2c(=O)n(-c3nc4ccccc4s3)n(Cc3ccccc3)c2cc(=O)n1Cc1nccnc1Cl` [AVG-164], the pEC50 was less than 4.70. Still for that read-out and setting: the value for `Cc1c2c(=O)n(-c3nc4ncccc4s3)n(Cc3ccccc3)c2cc(=O)n1Cc1cccc(Cl)n1` [AVG-195] was 7.00 to 8.00; that for `Cc1c2c(=O)n(-c3cnccn3)n(Cc3ccccc3)c2cc(=O)n1Cc1ccco1` [AVG-106] was 5.00 to 6.00. As for `Cc1c2c(=O)n(-c3ccccn3)n(Cc3ccccc3)c2cc(=O)n1Cc1ccccc1F` [AVG-130], the pEC50 was 6.00 to 7.00. For `Cc1cccc2sc(-n3c(=O)c4c(C)n(Cc5cccc(Cl)n5)c(=O)cc4n3Cc3ccccc3)nc12` [AVG-191], the pEC50 is 6.00 to 7.00. Still for that read-out and setting: next, `Cc1c2c(=O)n(-c3nc4ccccc4s3)n(Cc3ccccc3)c2cc(=O)n1Cc1cnc(Cl)cn1` [AVG-163]: 5.00 to 6.00; `Cc1c2c(=O)n(-c3nc4ccccc4s3)n(Cc3ccccc3)c2cc(=O)n1Cc1cccc(Cl)n1` [AVG-094]: 6.00 to 7.00; `Cc1c2c(=O)n(-c3ccccn3)n(Cc3ccc(OC(C)C)cc3)c2cc(=O)n1Cc1cccc(Cl)n1` [AVG-234]: 6.00 to 7.00.

`Cc1c2c(=O)n(-c3nc4ccccc4s3)n(Cc3ccccc3)c2cc(=O)n1Cc1cc(Cl)cc(Cl)n1` [AVG-169]: the pEC50 is 6.00 to 7.00. On the same count and under the same terms, the value for `Cc1c2c(=O)n(-c3ccccn3)n(Cc3ccccc3)c2cc(=O)n1Cc1cccc(Cl)c1` [AVG-128] was 6.00 to 7.00; that for `Cc1c2c(=O)n(-c3nc4ccccc4s3)n(Cc3ccccc3)c2cc(=O)n1C1CCOCC1` [AVG-043] was 4.70 to 5.00; that for `Cc1c2c(=O)n(-c3nc4ccccc4s3)n(Cc3ccccc3)c2cc(=O)n1Cc1cncc(Cl)n1` [AVG-162] was 4.70 to 5.00. On the same count and under the same terms, the value for `COc1ccc(Cn2c3cc(=O)n(Cc4cccc(OC)n4)c(C)c3c(=O)n2-c2nc3ccccc3s2)cc1` [AVG-231] was 7.00 to 8.00. Consider `COc1ccc2sc(-n3c(=O)c4c(C)n(Cc5cccc(Cl)n5)c(=O)cc4n3Cc3ccccc3)nc2c1` [AVG-188], for which the pEC50 was 6.00 to 7.00. The same measure, in the same setting: the value for `Cc1c2c(=O)n(-c3nc4ccccc4s3)n(Cc3ccccc3)c2cc(=O)n1CC1CCN(C)CC1` [AVG-039] was 4.70 to 5.00. For the molecule `Cc1c2c(=O)n(-c3nc4ccccc4s3)n(Cc3ccncc3)c2cc(=O)n1Cc1ccco1` [AVG-121], the pEC50 is 5.00 to 6.00.

Consider `COc1cccc(Cn2c(C)c3c(=O)n(-c4cc(Cl)ccn4)n(Cc4ccccc4)c3cc2=O)n1` [AVG-245], for which the pEC50 was 6.00 to 7.00. Still for that read-out and setting: the value for `Cc1c2c(=O)n(-c3nc4ccccc4s3)n(Cc3ccccc3)c2cc(=O)n1Cc1cccc(C(F)(F)F)n1` [AVG-201] was 6.00 to 7.00. Still for that read-out and setting: next, `Cc1c2c(=O)n(-c3ccccc3)n(Cc3ccccc3)c2cc(=O)n1Cc1ccccn1` [AVG-107]: 5.00 to 6.00; `COc1ccccc1Cn1c(C)c2c(=O)n(-c3ccccn3)n(Cc3ccccc3)c2cc1=O` [AVG-133]: 6.00 to 7.00; `Cc1cccc(Cn2c(C)c3c(=O)n(-c4nc5ccccc5s4)n(Cc4ccccc4)c3cc2=O)n1` [AVG-157]: 6.00 to 7.00. The same measure, in the same setting: next, `Cc1c2c(=O)n(-c3nc4ccccc4s3)n(CC3CCN(C)CC3)c2cc(=O)n1Cc1ccco1` [AVG-027]: 4.70 to 5.00; `Cc1c2c(=O)n(-c3nc4ccccc4s3)n(Cc3ccccc3)c2cc(=O)n1Cc1cccc(F)n1` [AVG-214]: 6.00 to 7.00; `COc1ccc(Cn2c(C)c3c(=O)n(-c4ccccn4)n(Cc4ccccc4)c3cc2=O)cc1` [AVG-132]: 5.00 to 6.00. As to `Cc1c2c(=O)n(-c3nc4ccccc4s3)n(Cc3ccc(Cl)cc3)c2cc(=O)n1Cc1cccc(Cl)n1` [AVG-173], the pEC50 was 6.00 to 7.00. As for `Cc1c2c(=O)n(-c3ccccn3)n(Cc3ccccc3)c2cc(=O)n1Cc1cccc(Cl)n1` [AVG-171], the pEC50 was 7.00 to 8.00. Same read-out and setting: next, `Cc1c2c(=O)n(-c3nc4ccccc4s3)n(Cc3ccccc3)c2cc(=O)n1Cc1ncco1` [AVG-096]: 5.00 to 6.00; `Cc1c2c(=O)n(-c3nc4ccccc4s3)n(Cc3ccccn3)c2cc(=O)n1Cc1ccco1` [AVG-119]: 5.00 to 6.00. On the same count and under the same terms, the value for `Cc1c2c(=O)n(-c3ccco3)n(Cc3ccccc3)c2cc(=O)n1Cc1ccccn1` [AVG-110] was 4.70 to 5.00; that for `Cc1c2c(=O)n(-c3nc4ccccc4s3)n(Cc3ccccc3)c2cc(=O)n1Cc1cccc(Cl)c1` [AVG-077] was 6.00 to 7.00; that for `Cc1c2c(=O)n(-c3nc4ccccc4s3)n(Cc3cocn3)c2cc(=O)n1Cc1ccco1` [AVG-125] was less than 4.70. The same measure, in the same setting: next, `Cc1c2c(=O)n(-c3nc4ccccc4s3)n(Cc3ccccc3)c2cc(=O)n1Cc1c[nH]cn1` [AVG-099]: 5.00 to 6.00; `COc1ccc(Cn2c3cc(=O)n(Cc4cccc(Cl)n4)c(C)c3c(=O)n2-c2ccccn2)cc1` [AVG-233]: 7.00 to 8.00. As to `Cc1c2c(=O)n(-c3nc4ccccc4s3)n(Cc3ccccc3)c2cc(=O)n1Cc1cn(C)cn1` [AVG-100], the pEC50 is less than 4.70.

On to `COc1ccc2nc(-n3c(=O)c4c(C)n(Cc5cccc(Cl)n5)c(=O)cc4n3Cc3ccccc3)sc2c1` [AVG-189], for which the pEC50 is 7.00 to 8.00.

As to `COc1ccc(Cn2c3cc(=O)n(Cc4cccc(OC)n4)c(C)c3c(=O)n2-c2ccccn2)cc1` [AVG-232], the pEC50 is 7.00 to 8.00. Still for that read-out and setting: next, `Cc1c2c(=O)n(-c3nc4ccccc4s3)n(Cc3ccccc3)c2cc(=O)n1CC1CCCO1` (stereo not shown) [AVG-074]: 4.70 to 5.00. The same measure, in the same setting: next, `Cc1c2c(=O)n(-c3nc4ccccc4s3)n(CC(C)C)c2cc(=O)n1Cc1ccco1` [AVG-070]: 5.00 to 6.00.

For `Cc1c2c(=O)[nH]n(Cc3ccccc3)c2cc(=O)n1Cc1ccccn1` [AVG-200], the pEC50 was less than 4.70. On the same count and under the same terms, the value for `Cc1c2c(=O)n(-c3nc4ccccc4s3)n(Cc3ccccc3)c2cc(=O)n1Cc1ccco1` [AVG-021, 2-(benzo[d]thiazol-2-yl)-1-benzyl-5-(furan-2-ylmethyl)-4-methyl-1H-pyrazolo[4,3-c] pyridine-3,6(2H,5H)-dione] was 5.00 to 6.00; that for `Cc1c2c(=O)n(-c3nc4ccccc4s3)n(Cc3ccccc3)c2cc(=O)n1C(C)c1cccc(Cl)n1` (stereo not shown) [AVG-170] was 5.00 to 6.00; that for `Cc1c2c(=O)n(-c3ccccn3)n(Cc3ccccc3)c2cc(=O)n1Cc1cccc(OC(C)C)n1` [AVG-230] was 6.00 to 7.00. Same read-out and setting: the value for `Cc1c2c(=O)n(-c3ccccn3)n(Cc3ccccc3)c2cc(=O)n1Cc1ccc(F)cc1` [AVG-129] was 6.00 to 7.00; that for `Cc1c2c(=O)n(-c3nc4cnccc4s3)n(Cc3ccccc3)c2cc(=O)n1Cc1cccc(Cl)n1` [AVG-196] was 4.70 to 5.00.
